In patent US20070141120A1, “Peptide having an ace inhibiting effect” (priority 2003, published 2007):
Peptide text beside a SMILES is read from it.

Legend:
ACE [1] = experiment: ACE-inhibition assay 2: modified Matsui assay; assay type: biochemical; conditions: substrate Hip-His-Leu, pH 8.3, 37° C., 30 min
Protocol: This ACE inhibition activity was assayed according to the method of Matsui et al. (Matsui, T. et al. (1992) Biosci. Biotech. Biochem. 56: 517-518) with the modifications described below.
For each sample 75 μl 3 mM hippuryl histidine leucine (Hip-His-Leu, Sigma chemicals Co.; the chemical was dissolved in 250 mM Borate containing 200 mM NaCl, pH 8.3); 20 μl 0.1 U/ml ACE (obtained at Sigma) or H2O, and 25 μl sample or H2O were mixed (see Table 1). The mixtures were incubated at 37° C. and stopped after 30 min by adding 125 μl 0.5 M HCl. Subsequently, 225 μl bicine/NaOH solution (1 M NaOH:0.25 M bicine (4:6)) was added, followed by 25 μl 0.1 M TNBS (2,4,6-Trinitrobenzenesulfonic acid, Fluka, Switzerland; in 0.1 M Na2HPO4). After incubation for 20 min. at 37° C., 4 ml 4 mM Na2SO3 in 0.2 M NaH2PO4 was added and the absorbance at 416 nm was measured with UV/Vis spectrophotometer (Shimadzu UV-1601 with a CPS controller, Netherlands).
The amount of ACE inhibition (ACEI) activity was calculated as a percentage of inhibition compared with the conversion rate of ACE in the absence of an inhibitor: ACEI (%)=(((C1−C2)−(S1−S2))/(C1−C2))*100 (1)
C1=Absorbance without ACE inhibitory component (=max. ACE activity) [AU].
C2=Absorbance without ACE inhibitory component and without ACE (background) [AU].
S1=Absorbance in the presence of ACE and the ACE inhibitory component [AU].
S2=Absorbance in the presence of the ACE inhibitory component, but without ACE [AU].

ACE [2] = biological target: ACE (Homo sapiens, UniProt P12821); experiment: ACE-inhibition assay 1: enzyme based assay (EBA); assay type: biochemical; conditions: substrate Abz-FRK-(Dnp)P-OH, pH 7.0, fluorescence
Protocol: ACE and a synthetic substrate (Abz-FRK-(Dnp)P-OH) were used in the ACE-inhibition assay performed in white optiplate-96 microplates (Packard Bioscience). The substrate was a kind gift of Adriana K. Carmona (Dept. of Biophysics, Escola Paulista de Medivina, Universidae Federal de Sao Paulo, Brazil). Stock solutions of Abz-FRK-(Dnp)P-OH were prepared in DMSO. […] The assay buffer composition was 100 mM tris/HCl buffer pH 7.0 containing 100 mM NaCl. Forty μl sample solution in assay buffer was added to each well. In case of the controls only buffer was added. The samples were measured in threefold in a fluorophotometer (Fluostar, BMG labtechnologies). […] The ACE activity was measured for 10 cycles (about 10 minutes) by measuring the fluorescence at λex=320 nm and ξem=420 nm. The raw data was converted to the slope/sec and the ACE inhibition activity was calculated using the equation below. ACE inhibition (%)=[1−(Smean−Bmean)/(Cmean−Bmean)]*100
Bmean=average result of background (substrate)

[3] = Stability during exposure to human serum (LC-MS); conditions: 37° C., up to 360 min, peptide mixtures
Protocol: Samples of 1.5 ml were collected in eppendorf vials at each of the time points. […] Samples were subsequently incubated for 5 min at 100° C. and then centrifugated in an IEC Micromax RF centrifuge (Boom BV Meppel) at 10.000 rpm for 20 minutes. The supernatant was collected in eppendorf vials and stored at −20° C. for further analysis. Experiments were performed in triplicate.
(§1) All measurements were carried out on a Waters Quattro-II or Quattro-Ultima triple quadrupole mass spectrometer. The LC separation was carried out at 25° C. on a Inertsil 5 ODS3 column, 150×2.1 mm, packed with 3 μm particles (Chompack) using 0-50% acetonitrile/0.1% (v/v) TFA. For analyses, 5 μl sample was injected onto the column. The flow rate through the column was 0.2 ml/min. The total flow after post-column makeup was 0.05 ml/min and contained a 7/3 (v/v) mixture of propionic acid and propanol-2. Gradient effluent was analysed using MRM mass spectrometry in positive-ESI mode. Capillary voltage was 4 kV. Source and nebulizer temperature were 100° C. and 250° C., repsectively. Drying and nebuliser gas flow were 300 l/h and 17 l/h, respectively. Collision gas was argon at a pressure of 7.9 e-4 mbar.

HUVEC cells = experiment: Stability during exposure to HUVEC cells (LC-MS); conditions: up to 120 min, peptide mixtures
Protocol: HUVEC cells were obtained from (Cambrex Bio Science, Verviers, Belgium) and used in experiments at passage 1-5. Cells were cultured in 75 cm^2 culture flasks (Corning Costar, Badhoevedorp, The Netherlands). The culture medium (Cambrex) consisted of EBM-2 supplemented with 2% (v/v) foetal bovine serum, 0.04% (v/v) Hydrocortisone, 0.4% (v/v) human Fibroblast Growth Factor Basic with heparin, 0.1% (v/v) Vascular Endothelial Growth Factor, 0.1% (v/v) human recombinant Insulin-like Growth Factor, 0.1% (v/v) Ascorbic acid, 0.1% (v/v) human recombinant Epidermal Growth Factor, 0.1% (v/v) Gentamicin, Amphotericin-B and 0.1% (v/v) Heparin. Cells were maintained at 37° C. in a humidified atmosphere of 5% CO2 in air. For stability experiments, cells were seeded in a 12 well plate (Corning Costar, Badhoevedorp, The Netherlands) at a density of 100.000 cells/well and cultured for 2 days.
Cells were cultured in 12-well plates. Peptide mixtures were added to culture medium without foetal bovine serum, but containing 20% (v/v) solid phase extracted foetal bovine serum. For HUVEC, 400 μl medium containing 0.1, 1 and 10 μg/ml peptide was added to a well of the culture plate. Three times 130 μl medium was collected at 0, 5, 10, 20, 30, 60, 90 and 120 min of incubation. […] Experiments were performed in triplicate and all samples were directly placed on dry-ice and stored at −20° C. […] Wells without cells served as controls.
as §1

Caco-2 cells = experiment: Stability during exposure to Caco-2 cells (LC-MS); conditions: up to 360 min, peptide mixtures
Protocol: Caco-2 cells were obtained from American Type Culture Collection (ATCC) and used in experiments at passage 30-40. Cells were cultured in 75 cm^2 culture flasks (Corning Costar, Badhoevedorp, The Netherlands). The culture medium consisted of DMEM (high glucose, with L-glutamine) supplemented with 20% (v/v) foetal bovine serum, 1% (v/v) penicillin/streptomycin solution and 1% (v/v) NEAA. Cells were maintained at 37° C. in a humidified atmosphere of 5% CO2 in air. For stability experiments, cells were seeded on 12 well cell culture plates (Costar, Badhoevedorp, The Netherlands) and cultured for at least 21 days.
Cells were cultured in 12-well plates. Peptide mixtures were added to culture medium without foetal bovine serum, but containing 20% (v/v) solid phase extracted foetal bovine serum. […] For Caco-2 cells, 330 μl medium containing 0.1, 1 and 10 μg/ml peptide was added to each well of the culture plate. Three times 110 μl medium was collected at 0, 5, 10, 20, 30, 60, 90, 180 and 360 min of incubation. Experiments were performed in triplicate and all samples were directly placed on dry-ice and stored at −20° C. […] Wells without cells served as controls.
as §1

[4] = in sour milk, hypertensive humans, placebo-controlled; cited from earlier work
[5] = In vitro gastrointestinal digestion (GI conditions); conditions: simulated gastric fluid pH 3.5 60 min, then intestinal fluid pH 6.8 120 min, 37° C.
Protocol: The stability of peptides in the human gastrointestinal tract was studied by subjecting fermented or hydrolysed milk proteins to typical conditions in the stomach and small intestine. Gastric conditions were mimicked by dissolving 80 ml fermented or hydrolysed milk protein in 820 ml water contianing 2.0 g NaCl, 2.9 g pepsin and 0.45 g Amano Lipase F-AP15 from Rhizopus oryzae. The fluid was adjusted to pH 3.5 with HCl, stirred with a peddle (50 rpm) and kept at 37° C. for 60 min. […] The simulated intestinal fluid was stirred with a peddle (50 rpm) and kept at 37° C. for 120 min. Samples were collected at different time points during the in vitro gastrointestinal digestion. After collection, samples were directly heated at 95° C. for 30 min and subsequently stored at −20° C.

ACE (Homo sapiens, UniProt P12821), sequence (P12821 30-1306, species assumed): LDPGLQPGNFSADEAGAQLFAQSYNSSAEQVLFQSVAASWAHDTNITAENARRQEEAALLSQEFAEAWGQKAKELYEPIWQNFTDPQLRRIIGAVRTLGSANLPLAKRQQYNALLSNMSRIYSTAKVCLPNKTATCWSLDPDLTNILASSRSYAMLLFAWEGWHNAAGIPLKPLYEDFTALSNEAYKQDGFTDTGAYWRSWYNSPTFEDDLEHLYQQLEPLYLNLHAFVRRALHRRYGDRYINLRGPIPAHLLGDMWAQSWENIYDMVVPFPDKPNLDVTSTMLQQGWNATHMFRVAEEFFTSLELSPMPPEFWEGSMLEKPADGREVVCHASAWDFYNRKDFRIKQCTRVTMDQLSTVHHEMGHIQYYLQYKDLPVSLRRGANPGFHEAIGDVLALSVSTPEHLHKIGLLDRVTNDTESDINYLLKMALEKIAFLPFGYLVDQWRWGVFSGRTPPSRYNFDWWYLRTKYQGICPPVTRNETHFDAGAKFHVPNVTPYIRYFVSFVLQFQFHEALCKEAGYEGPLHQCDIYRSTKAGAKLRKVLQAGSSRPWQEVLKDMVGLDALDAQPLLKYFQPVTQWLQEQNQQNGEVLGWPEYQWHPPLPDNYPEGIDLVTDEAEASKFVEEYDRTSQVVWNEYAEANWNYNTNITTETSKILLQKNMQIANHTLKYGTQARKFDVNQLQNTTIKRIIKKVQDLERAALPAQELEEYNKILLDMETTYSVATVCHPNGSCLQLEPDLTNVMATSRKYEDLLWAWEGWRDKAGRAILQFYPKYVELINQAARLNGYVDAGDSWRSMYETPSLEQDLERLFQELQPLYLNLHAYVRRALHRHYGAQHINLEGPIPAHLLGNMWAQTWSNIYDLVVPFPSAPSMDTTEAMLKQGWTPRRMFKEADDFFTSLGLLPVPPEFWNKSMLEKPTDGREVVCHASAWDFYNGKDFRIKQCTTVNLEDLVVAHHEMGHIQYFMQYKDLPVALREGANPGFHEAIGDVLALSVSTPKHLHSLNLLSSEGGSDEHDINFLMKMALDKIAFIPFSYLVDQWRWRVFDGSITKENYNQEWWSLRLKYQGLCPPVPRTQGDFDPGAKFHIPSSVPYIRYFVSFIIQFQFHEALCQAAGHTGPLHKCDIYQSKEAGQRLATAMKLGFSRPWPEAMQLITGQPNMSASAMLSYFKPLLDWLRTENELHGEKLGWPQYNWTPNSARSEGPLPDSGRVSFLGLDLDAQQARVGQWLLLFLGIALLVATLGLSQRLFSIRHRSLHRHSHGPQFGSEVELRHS

C[C@@H](O)[C@H](N)C(=O)N1CCC[C@H]1C(=O)N1CCC[C@H]1C(=O)O [TPP] (H-Thr-Pro-Pro-OH; N-terminus and C-terminus assumed)
IC50 (ACE [1]): 15 µM | IC50 (ACE [2]): 35 µM | Stability, Serum [3]: +/− | Stability, HUVEC (HUVEC cells): + | Stability, Caco-2 (Caco-2 cells): +

CC(C)C[C@H](NC(=O)[C@@H]1CCCN1)C(=O)N1CCC[C@H]1C(=O)O [PLP] (H-Pro-Leu-Pro-OH; N-terminus and C-terminus assumed)
IC50 (ACE [2]): > 50 µM | Stability, Serum [3]: − | Stability, HUVEC (HUVEC cells): +/− | Stability, Caco-2 (Caco-2 cells): −

CC(C)[C@H](N)C(=O)N[C@@H](C)C(=O)N1CCC[C@H]1C(=O)O [VAP] (H-Val-Ala-Pro-OH; N-terminus and C-terminus assumed)
IC50 (ACE [1]): 1 µM | IC50 (ACE [2]): 4 µM | Stability, Serum [3]: − | Stability, HUVEC (HUVEC cells): − | Stability, Caco-2 (Caco-2 cells): −

CC(C)C[C@H](NC(=O)[C@@H](NC(=O)[C@@H](N)CCCCN)C(C)C)C(=O)N1CCC[C@H]1C(=O)N[C@H](C(=O)N1CCC[C@H]1C(=O)O)C(C)C [KVLPVP] (H-KVLPVP-OH; N-terminus and C-terminus assumed)
IC50 (ACE [1]): 2 µM | Stability, Serum [3]: − | Stability, HUVEC (HUVEC cells): − | Stability, Caco-2 (Caco-2 cells): −

N[C@@H](CS)C(=O)N1CCC[C@H]1C(=O)N1CCC[C@H]1C(=O)O [CPP] (H-Cys-Pro-Pro-OH; N-terminus and C-terminus assumed)
IC50 (ACE [1]): 4 µM | IC50 (ACE [2]): 5 µM

CC(C)[C@H](N)C(=O)N1CCC[C@H]1C(=O)N1CCC[C@H]1C(=O)O [VPP]
Blood pressure effect [4]: blood pressure lowering effect

CC[C@H](C)[C@H](N)C(=O)N1CCC[C@H]1C(=O)N1CCC[C@H]1C(=O)O [IPP]
Blood pressure effect [4]: blood pressure lowering effect | Stability, Serum [3]: +/− | Stability, HUVEC (HUVEC cells): + | Stability, Caco-2 (Caco-2 cells): − | Stability, GI conditions [5]: +

CC[C@H](C)[C@H](NC(=O)[C@@H]1CCCN1)C(=O)N1CCC[C@H]1C(=O)O [PIP] (H-Pro-Ile-Pro-OH; N-terminus and C-terminus assumed)
IC50 (ACE [2]): > 50 µM | Stability, Serum [3]: − | Stability, HUVEC (HUVEC cells): +/− | Stability, Caco-2 (Caco-2 cells): −

N[C@@H](Cc1ccccc1)C(=O)N[C@@H](Cc1ccc(O)cc1)C(=O)O [FY] (H-Phe-Tyr-OH; N-terminus and C-terminus assumed)
IC50 (ACE [1]): 10 µM | IC50 (ACE [2]): 20 µM | Stability, Serum [3]: + | Stability, HUVEC (HUVEC cells): − | Stability, Caco-2 (Caco-2 cells): +/−

CSCC[C@H](N)C(=O)N1CCC[C@H]1C(=O)N1CCC[C@H]1C(=O)O [MPP] (H-Met-Pro-Pro-OH; N-terminus and C-terminus assumed)
IC50 (ACE [1]): 7 µM | IC50 (ACE [2]): 10 µM | Stability, Serum [3]: +/− | Stability, HUVEC (HUVEC cells): + | Stability, Caco-2 (Caco-2 cells): −

NCCCC[C@H](N)C(=O)N1CCC[C@H]1C(=O)N1CCC[C@H]1C(=O)O [KPP] (H-Lys-Pro-Pro-OH; N-terminus and C-terminus assumed)
IC50 (ACE [2]): > 50 µM

CC(C)[C@H](N)C(=O)N[C@@H](Cc1ccccc1)C(=O)O [VF] (H-Val-Phe-OH; N-terminus and C-terminus assumed)
Stability, Serum [3]: +/− | Stability, HUVEC (HUVEC cells): − | Stability, Caco-2 (Caco-2 cells): +/−
